Like-named read-outs stand apart in the source and are kept apart here.
Columns and labels:
[1] = test system: SARS-CoV-2; details: anti-SARS-CoV-2, literature values; cited from earlier work
[2] = literature values; cited from earlier work
[3] = in vivo; type: in vitro ADME; details: plasma
From the text: In addition, due to the high plasma protein binding rate of atovaquone and nitazoxanide, both about 99% (refer to Beerahee M Clinical pharmacology of atovaquone and proguanil hydrochloride. [J]. Journal of Travel Medicine, 1999, 6 suppl 1:S13-7.; Alinia™ PRESCRIBING INFORMATION-FDA.). The present application also studied and compared the in vivo plasma protein binding rate of atovaquone and nitazoxanide combined administration and separate administration. […] Compared with alone administration, combined administration will not affect the distribution and elimination of the two drugs in vivo, and competition for plasma protein binding site by one drug will not result in an increase in the free form of another drug.

[4] = literature (Beerahee 1999; Alinia prescribing information); cited from earlier work
[5] = test system: SARS-CoV-2 (hCoV-19/China/CAS-B001/2020); assay: Synergistic anti-SARS-CoV-2 activity (Example 4), CPE in Vero-E6 cells; type: cell-based; details: Severe acute respiratory syndrome coronavirus 2, Vero C1008; wild strain hCoV-19/China/CAS-B001/2020, Vero-E6, CPE after 72 hours
[6] = rats
Procedure: Among them, group 4 was converted according to the clinical administration of 3 tablets, and the remaining experimental groups were converted according to the clinical administration of 4 tablets.
A single dose was administered to healthy SD rats, and blood was taken according to the blood collection plan. After sample processing, analysis, and data processing, the plasma concentration-time curves of each group were drawn respectively. The pharmacokinetic parameters of each group of medicines in rats was calculate by WinNonlin 6.1 software.

[7] = atovaquone combined with nitazoxanide, read-out: average plasma protein binding rate, combined administration group (converted)
[8] = separate administration, read-out: average plasma protein binding rate, separate administration group (converted)

Structure (SMILES) | EC50 [1] [nM] | Plasma concentration [2] [nM] | fraction unbound [3, 7] | fraction unbound [3, 8] | plasma protein binding rate [4] | EC50 [5] [nM] | exposure level (AUC0-24h) administered alone compared with combination at the same dose ([6]; single dose) | plasma concentration trend at 16-24 hours, administered alone ([6]; single dose) | plasma concentration trend at 16-24 hours, combined administration ([6]; single dose) | plasma concentration administered alone vs in combination at the same dose ([6]; single dose 46.6 mg/kg, group 1 vs group 5) | plasma concentration administered alone vs in combination, within 0.5-4 hours after administration ([6]; 13.9 mg/kg, group 3 vs group 5 and group 4)
CC(C)C(=O)OC[C@H]1O[C@@H](n2ccc(NO)nc2=O)[C@H](O)[C@@H]1O [Molnupiravir] | 320 to 2030 | 2090 | – | – | – | – | – | – | – | – | –
O=C1C(O)=C([C@H]2CC[C@H](c3ccc(Cl)cc3)CC2)C(=O)c2ccccc21 [ATQ, 2-(trans-4-(4-chlorophenyl)cyclohexyl)-3-hydroxy-1,4-naphthalenedione] | – | – | 0.0014 | 0.0016 | about 99% | 2040 | similar | downward trend | flat or rising trend | – | –
CC(=O)Oc1ccccc1C(=O)Nc1ncc([N+](=O)[O-])s1 [NTZ, o-[N-(5-nitro-1,3-thiazol-2-yl)carbamoyl]phenol acetate] | – | – | 0.0016 | 0.0105 | about 99% | 4900 | – | – | – | no obvious difference | –
NC(=O)c1ncn([C@@H]2O[C@H](CO)[C@@H](O)[C@H]2O)n1 [RBV, 1-[(2R,3R,4S,5R)-3,4-dihydroxy-5-(hydroxymethyl)Oxolane-2-yl]-1H-1,2,4-triazole-3-carboxamide] | – | – | – | – | – | – | slightly greater | – | – | – | greater

From patent US20240382510A1, “NEW COMBINATION DRUG FOR TREATING CORONAVIRUS INFECTIONS, PHARMACEUTICAL COMPOSITION AND USE THEREOF” (priority 2021, published 2024)
